Data set [1] in a line: Cytotoxicity in MA-104 cells (MTT). Format: cell-based. The following applies: African green monkey. How it is done:
(§1) The anti rotavirus activities were tested according to our previous literature. Human rotavirus Wa group was used to infect the cell culture MA104 in vitro, the 50% cytotoxicity concentration (CC50) and half maximal effective concentration (EC50) were evaluated, and ribavirin (C8H12N4O5, CAS No. […], a broad-spectrum antiviral drug) was used as a positive control. MA-104 cells (1 × 10^5 cells per well) were grown in 96-well plates for 48 h. The media were removed and replaced by new media containing serial dilutions of compounds under test. After incubation for 72 h, the media were discarded, and 5.0 μL of MTT solution was added to each well. Plates were then incubated at 37 °C for 4 h. The solution was removed, and 100 μL of 0.04 mol/L HCl-isopropanol was added to each well to dissolve formazan crystals. Using a microplate reader, the absorbance of each well was measured at 540 nm. After subtracting the background absorbance at 655 nm, the 50% CC50 of each compound was estimated by regression analysis.

Data set [2] relates to TMV. Nature of the data set: Protective effect on TMV (pretreatment of tobacco plant before inoculation). Format: in vivo. Conditions: Tobacco mosaic virus; tobacco plant pretreated with 20 μM solution for 6 h before inoculation with TMV; read-out: protective effect inhibition rate. How it is done: For compounds with significant activities in half-leaf method assays, their protective effects on TMV were also evaluated by pretreating a tobacco plant with 20 μM solutions of compounds in DMSO, or a solution of DMSO for 6 h before inoculation with TMV.

Data set [3] has as its system tobacco mosaic virus (TMV). Briefly: Anti-TMV activity, half-leaf method. Format: in vivo. Conditions: in Nicotiana glutinosa; for inhibition at 20 µM: read-out: % Inhibition at 20 µM. How it is done:
The anti-TMV activities were tested using the half-leaf method according to our previous studies, and Ningnanmycin (C16H23O8N7, CAS No. 156410-09-2), a commercial cytosine nucleoside peptide type antibiotics for plant disease in China, was used as a positive control. The virus was inhibited by mixing with the solution of tested compounds (20 μM in DMSO). After 30 min, the mixture was inoculated on the left side of the leaves of N. glutinosa, whereas the right side of the leaves was inoculated with the mixture of DMSO solution with the virus as control. The local lesion numbers were recorded 3–4 days after inoculation. Three repetitions were conducted for each compound. The inhibition rates were calculated according to the formula: inhibition rate (%) = [(C − T)/C] × 100%(1) where C is the average number of local lesions of the control and T is the average number of local lesions of the treatment. Ningnanmycin (20 μM in DMSO), a commercial virucide for plant disease in China, was used as a positive control.

Data set [4] concerns Human rotavirus Wa group. Briefly: Anti-rotavirus assay, prevention of cytopathic effect in MA104 cells (mixed treatment). The class given is cell-based. The following applies: for EC50: Human rotavirus, MA104, rotavirus 0.01 MOI, MA-104 cells, 72 h, CPE; for TI (CC50/EC50): therapeutic index. As for the experimental part:
In order to study whether the chromones and indole alkaloids from the stem bark of C. alata had more broad antiviral activities, compounds 1–5 were also tested for their anti-rotavirus activity. Their ability to prevent the cytopathic effects of rotavirus in MA104 cells was tested according to our previous literatures, and their effects were measured in parallel with the determination of antiviral activity using ribavirin as a positive control.
as §1
In the mixed treatment assay, each compound was mixed with a 0.01 multiplicity of infection (MOI) of the rotaviruses at various concentrations (1–160 μg/mL) and incubated at 4 °C for 1 h. The mixtures were inoculated in triplicates onto near confluent MA-104 cell monolayers (1 × 10^5 cells per well) for 1 h with occasional rocking. The solution was removed, and the cells were replaced with eagles minimum essential medium (EMEM) containing 1 μg/mL trypsin. […] EC50 was estimated by regression analysis.
In general terms: Cytopathic effects are the visible damage that an infection or toxin causes in cultured cells.

Converted amounts (≈) assume the structure as drawn. Like-named read-outs stand apart in the source and are kept apart here.

In turn, `CC(=O)Cc1c(CO)ccc2c1OC(C)(C)CC2=O` [Compound 4, 7-(Hydroxymethyl)-2,2-dimethyl-8-(2-oxopropyl)chroman-4-one] gave a CC50 at 72 h in data set [1] of 192 µg/mL (≈ 734 µM). Also, the inhibition at 20 µM in data set [2] came to 49.3%. Moreover, in data set [3], the midpoint of inhibition, the IC50, lay at 17.9 µM and the inhibition at 20 µM amounted to 52.3 ± 3.6%. Besides, in data set [4], a half-maximal effect (EC50) was put at 15.5 µg/mL (≈ 59.1 µM) and the “TI (CC50/EC50)” value came out at 12.4.

On to `CNCC(=O)N[C@@H](CO)C(=O)N[C@H]1[C@H](O)[C@@H](O)[C@H](n2ccc(N)nc2=O)O[C@@H]1C(N)=O` [Ningnanmycin, reference compound], for which, in data set [3], the IC50 was 37.2 µM and the inhibition at 20 µM came to 32.8 ± 3%.

On to `COc1cc(CCCO)cc2c1CN(C)C2=O` [Compound 3, 6-(3-Hydroxypropyl)-4-methoxy-2-methylisoindolin-1-one], for which, in data set [1], the CC50 at 72 h was found to be 208 µg/mL (≈ 885 µM). For the same molecule, in data set [2], the inhibition at 20 µM worked out at 68.2%. For the same molecule, in data set [3], the IC50 is 14.2 µM and the inhibition at 20 µM stood at 66.5 ± 4%. In data set [4], the EC50 is 13.6 µg/mL (≈ 57.8 µM) and the “TI (CC50/EC50)” value was 15.3.

As for `COc1cc(C)cc2c1CN(Cc1ccc3c(c1CC(C)=O)OC(C)(C)CC3=O)C2=O` [Compound 5, 2-((3,4-Dihydro-2,2-dimethyl-4-oxo-8-(2-oxopropyl)-2H-chromen-7-yl)methyl)-4-methoxy-6-methyl-isoindolin-1-one], the CC50 at 72 h in data set [1] came out at 154 µg/mL (≈ 364 µM). In addition, in data set [3], half-maximal inhibition (IC50) required 43.4 µM and the inhibition at 20 µM turned out to be 31.8 ± 3.3%. For the same molecule, in data set [4], the midpoint of the response, the EC50, lay at 12.8 µg/mL (≈ 30.4 µM) and the “TI (CC50/EC50)” value is on record as 12.0.

In the case of `NC(=O)c1ncn([C@@H]2O[C@H](CO)[C@@H](O)[C@H]2O)n1` [Ribavirin, reference compound], the CC50 at 72 h in data set [1] (MA-104 cells, 72 h, MTT, read-out: CC50) was 234 µg/mL (≈ 960 µM). Also, in data set [4], the EC50 was 12.2 µg/mL (≈ 50 µM) and the “TI (CC50/EC50)” value came out at 19.2.

`COc1cc(C)cc2c1CN(C)C2=O` [Compound 1, 4-Methoxy-2,6-dimethylisoindolin-1-one] showed a CC50 at 72 h in data set [1] of 142 µg/mL (≈ 745 µM). In data set [3], half-maximal inhibition (IC50) required 55.3 µM and the inhibition at 20 µM is 26.5 ± 2.8%. For the same molecule, in data set [4], the midpoint of the response, the EC50, lay at 14.6 µg/mL (≈ 76.3 µM) and the “TI (CC50/EC50)” value is 9.75.

In data set [1], `COc1cc(CO)cc2c1CN(C)C2=O` [Compound 2, 6-(Hydroxymethyl)-4-methoxy-2-methylisoindolin-1-one] registered a CC50 at 72 h of 175 µg/mL (≈ 845 µM). Also, the inhibition at 20 µM in data set [2] amounted to 40.8%. For the same molecule, in data set [3], the IC50 turned out to be 22.6 µM and the inhibition at 20 µM is 44.4 ± 3.5%. In data set [4], a half-maximal response (EC50) required 14.8 µg/mL (≈ 71.4 µM) and the “TI (CC50/EC50)” value came to 11.8.

As a reminder, the CC50 is the concentration at which the toxic effect on the cells reaches its halfway point. A word on the inhibition: it is the percentage by which the read-out fell short of the control. The IC50 is the concentration needed to halve the response being measured. What is called EC50 is the concentration needed to bring the measured effect to its halfway point.

For the origin of these results see PMC9144915, “Indole Alkaloids and Chromones from the Stem Bark of Cassia alata and Their Antiviral Activities” (Molecules, 2022).
